Measurements published in patent publication US10047051B2, “Substituted pyridines and method of use” (AbbVie S.á{acute over (.)}r.l., priority 2015, dated 2018).

How the values were obtained:
[1] = target: T1, CFTR ΔF508 mutant (Homo sapiens, UniProt P13569, DEL508-508); experiment: YFP-halide influx assay for the CFTR-ΔF508 mutation (CFBE41o- cells); assay type: cell-based; conditions: forskolin 10.67 μM; for EC50: from (1−F/F0) vs concentration plot
T1 construct: expressed in transfected cells; host or cells: CFBE41o- cells, adenoviral transduction
T1 sequence (P13569 with tags, fused parts or gaps DEL508-508): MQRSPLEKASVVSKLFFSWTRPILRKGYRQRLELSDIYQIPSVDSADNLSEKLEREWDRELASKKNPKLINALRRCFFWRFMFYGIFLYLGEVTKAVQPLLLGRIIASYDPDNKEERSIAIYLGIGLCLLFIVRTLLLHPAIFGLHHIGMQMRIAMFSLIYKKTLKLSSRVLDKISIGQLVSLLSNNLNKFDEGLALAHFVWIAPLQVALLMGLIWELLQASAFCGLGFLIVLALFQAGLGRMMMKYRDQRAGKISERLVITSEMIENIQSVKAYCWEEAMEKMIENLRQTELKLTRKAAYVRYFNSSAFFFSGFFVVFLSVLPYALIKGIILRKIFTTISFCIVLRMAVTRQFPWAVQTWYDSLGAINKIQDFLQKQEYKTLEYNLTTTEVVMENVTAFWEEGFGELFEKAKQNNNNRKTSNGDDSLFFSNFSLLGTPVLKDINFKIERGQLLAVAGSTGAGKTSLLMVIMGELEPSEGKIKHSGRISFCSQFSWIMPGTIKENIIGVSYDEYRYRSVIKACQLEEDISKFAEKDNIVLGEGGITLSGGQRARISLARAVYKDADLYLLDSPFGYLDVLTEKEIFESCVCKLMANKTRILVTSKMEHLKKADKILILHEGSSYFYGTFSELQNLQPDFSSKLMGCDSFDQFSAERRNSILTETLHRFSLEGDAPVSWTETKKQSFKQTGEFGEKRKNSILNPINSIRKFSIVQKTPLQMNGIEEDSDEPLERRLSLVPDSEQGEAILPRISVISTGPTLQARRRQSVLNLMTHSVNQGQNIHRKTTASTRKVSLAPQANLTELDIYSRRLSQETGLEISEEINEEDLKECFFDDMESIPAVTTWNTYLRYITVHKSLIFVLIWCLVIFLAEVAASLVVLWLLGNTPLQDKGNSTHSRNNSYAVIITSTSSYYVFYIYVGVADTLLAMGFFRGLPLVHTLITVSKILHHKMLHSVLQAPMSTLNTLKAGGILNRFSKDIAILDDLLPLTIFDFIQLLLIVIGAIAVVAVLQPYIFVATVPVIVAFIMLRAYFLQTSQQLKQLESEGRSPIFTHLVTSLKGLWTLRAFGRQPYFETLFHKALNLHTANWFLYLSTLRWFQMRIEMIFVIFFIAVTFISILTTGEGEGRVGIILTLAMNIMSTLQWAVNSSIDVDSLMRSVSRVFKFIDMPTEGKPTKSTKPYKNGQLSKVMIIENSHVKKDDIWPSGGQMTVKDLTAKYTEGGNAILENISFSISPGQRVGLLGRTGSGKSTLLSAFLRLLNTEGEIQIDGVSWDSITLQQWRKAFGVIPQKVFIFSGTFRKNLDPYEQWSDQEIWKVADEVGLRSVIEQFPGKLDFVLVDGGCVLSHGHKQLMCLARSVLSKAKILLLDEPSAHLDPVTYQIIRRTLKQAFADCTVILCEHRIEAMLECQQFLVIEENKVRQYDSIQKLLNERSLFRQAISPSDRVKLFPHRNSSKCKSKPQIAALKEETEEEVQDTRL
Text: The YFP halide influx assay measured the functionality of the cystic fibrosis Transmembrane Conductance regulator (CFTR) channels in the cystic fibrosis bronchial epithelium cell line CFBE41o-. The assay was used to evaluate the capacity of compounds to increase the open probability of existing CFTR channels in the membrane. It makes use of the observation that the yellow fluorescent protein (YFP) variant YFP H148Q, I152L, F47L has its fluorescence substantially quenched by halide ions like Cl^− and I^− (Galietta, L. J. V., Haggie, P. M., Verkman, A. S., 2001. Green fluorescent protein-based halide indicators with improved chloride and iodide affinities. FEBS Lett. 499, 220-224. doi:10.1016/S0014-5793(01)02561-3; Nagai, T., Ibata, K., Park, E. S., Kubota, M., Mikoshiba, K., Miyawaki, A., 2002. A variant of yellow fluorescent protein with fast and efficient maturation for cell-biological applications. Nat. Biotechnol. 20, 87-90. doi: 10.1038/nbt0102-87).
For this purpose, CFBE41o-cells were seeded in 384 well plates (3000 CFBE cells/well). One day after seeding, the CFBE cells were transduced with adenoviral vectors that direct the expression of the CFTR ΔF508 mutant and of the YFP reporter. Cells were incubated at 27° C., 5% CO2 for 24 hours so as to allow for the proper folding and migration to the membrane of the CFTR channel or treated with a CFTR modulator during 24 hours at 37° C.
The I-induced quenching of fluorescence was recorded on an immediately after injection of iodide for 2 minutes on an FDSS/μCell (Hamamatsu). The capacity of a compound to increase the channel opening was directly correlated with the decrease in fluorescence, and was expressed as (1−(fluorescence after 36 seconds (F)/fluorescence before injection (F0))) and an EC50 was derived from a (1−F/F0) vs compound concentration plot.

[2] = target: T2, CFTR G551D mutant (Homo sapiens, UniProt P13569, G551D); experiment: YFP-halide influx assay for the CFTR-G551D mutation (HEK293 cells); assay type: cell-based; conditions: forskolin 10.67 μM
T2 construct: expressed in transfected cells; host or cells: HEK293 cells, reverse transfection with plasmids
T2 sequence (P13569 whole entry G551D): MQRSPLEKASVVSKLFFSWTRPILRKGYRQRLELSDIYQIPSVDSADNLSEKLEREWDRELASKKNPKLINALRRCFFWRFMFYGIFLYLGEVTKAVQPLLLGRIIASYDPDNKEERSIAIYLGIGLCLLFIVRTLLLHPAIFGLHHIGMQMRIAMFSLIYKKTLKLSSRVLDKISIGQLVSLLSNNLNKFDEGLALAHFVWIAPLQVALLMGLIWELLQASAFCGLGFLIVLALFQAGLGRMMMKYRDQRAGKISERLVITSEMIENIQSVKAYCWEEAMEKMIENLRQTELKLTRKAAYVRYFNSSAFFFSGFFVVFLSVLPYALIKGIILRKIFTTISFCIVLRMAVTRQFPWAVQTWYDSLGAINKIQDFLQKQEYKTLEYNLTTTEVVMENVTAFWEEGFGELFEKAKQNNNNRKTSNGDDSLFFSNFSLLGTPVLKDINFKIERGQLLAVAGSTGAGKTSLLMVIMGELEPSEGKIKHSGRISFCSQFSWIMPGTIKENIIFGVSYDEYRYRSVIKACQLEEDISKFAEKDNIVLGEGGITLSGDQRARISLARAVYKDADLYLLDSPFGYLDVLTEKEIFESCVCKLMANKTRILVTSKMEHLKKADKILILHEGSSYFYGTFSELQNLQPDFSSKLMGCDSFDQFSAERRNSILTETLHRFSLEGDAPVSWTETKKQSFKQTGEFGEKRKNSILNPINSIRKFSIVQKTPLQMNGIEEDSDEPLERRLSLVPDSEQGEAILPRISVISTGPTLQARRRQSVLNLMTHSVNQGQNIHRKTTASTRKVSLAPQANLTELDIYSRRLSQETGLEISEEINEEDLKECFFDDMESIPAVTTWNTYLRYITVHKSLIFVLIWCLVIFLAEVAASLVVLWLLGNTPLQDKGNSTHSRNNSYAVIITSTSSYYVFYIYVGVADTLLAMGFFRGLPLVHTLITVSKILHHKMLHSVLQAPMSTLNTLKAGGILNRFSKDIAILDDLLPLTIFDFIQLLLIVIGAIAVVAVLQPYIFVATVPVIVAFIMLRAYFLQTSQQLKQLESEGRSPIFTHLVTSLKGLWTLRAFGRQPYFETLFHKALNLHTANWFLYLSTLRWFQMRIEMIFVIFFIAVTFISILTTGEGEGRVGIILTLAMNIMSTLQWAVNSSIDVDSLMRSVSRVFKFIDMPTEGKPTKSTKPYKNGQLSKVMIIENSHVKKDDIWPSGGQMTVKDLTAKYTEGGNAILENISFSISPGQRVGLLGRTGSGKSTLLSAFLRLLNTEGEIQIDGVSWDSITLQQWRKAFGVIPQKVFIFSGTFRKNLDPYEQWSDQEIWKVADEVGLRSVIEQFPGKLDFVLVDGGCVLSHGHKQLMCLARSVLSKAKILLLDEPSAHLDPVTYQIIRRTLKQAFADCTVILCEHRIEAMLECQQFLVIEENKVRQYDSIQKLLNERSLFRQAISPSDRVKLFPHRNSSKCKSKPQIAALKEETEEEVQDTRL
Text: The YFP halide influx assay measured the functionality of the cystic fibrosis Transmembrane Conductance regulator (CFTR) channels. The assay was used to evaluate the capacity of compounds to increase the channel opening of existing mutant CFTR channels in the membrane. It makes use of the observation that the yellow fluorescent protein (YFP) variant YFP H148Q, I152L, F47L has its fluorescence substantially quenched by halide ions like Cl^− and I^− (Galietta, L. J. V., Haggie, P. M., Verkman, A. S., 2001. Green fluorescent protein-based halide indicators with improved chloride and iodide affinities. FEBS Lett. 499, 220-224. doi:10.1016/S0014-5793(01)02561-3).
For this purpose, HEK293-cells were seeded in 96 well plates. During seeding, the cells were reverse-transfected with plasmid vectors that direct the expression of the CFTR G551D mutant and of the YFP reporter. Cells were incubated at 37° C., 5% CO2 for 24 hours so as to allow for sufficient expression of the CFTR protein.
The I^−-induced quenching of fluorescence was recorded immediately after injection of I^− for 7 seconds. The capacity of a compound to increase the channel opening was directly correlated with the decrease in fluorescence, and was expressed as (1−(fluorescence after 7 seconds (F)/fluorescence before injection (F0))) and an EC50 was derived from a (1−F/F0) vs compound concentration plot.

SMILES | % Activation [1] | EC50 [1] | % Activation [2] | EC50 [2]
CC(C)C[C@H](CO)NC(=O)c1ncc(S(=O)(=O)c2ccc(OC(F)(F)F)cc2)cc1N [Compound 46, 3-amino-N-[(2R)-1-hydroxy-4-methylpentan-2-yl]-5-{[4-(trifluoromethoxy)phenyl]sulfonyl}pyridine-2-carboxamide] | 41.4% | 1160 nM | 3.5% | > 10000 nM
COCC(=O)NNC(=O)c1ncc(S(=O)(=O)c2ccc(OC(F)(F)F)cc2)cc1N [Compound 286, 3-amino-N′-(methoxyacetyl)-5-{[4-(trifluoromethoxy)phenyl]sulfonyl}pyridine-2-carbohydrazide] | 79.7% | 88.1 nM | 26.8% | –
CN1CCC(O)(CNC(=O)c2ncc(S(=O)(=O)c3ccc(C(F)(F)F)cc3)cc2N)CC1 [Compound 230, 3-amino-N-[(4-hydroxy-1-methylpiperidin-4-yl)methyl]-5-{[4-(trifluoromethyl)phenyl]sulfonyl}pyridine-2-carboxamide] | 12.4% | > 2000 nM | 1.5% | > 10000 nM
CC(C)(O)CCNC(=O)c1ncc(S(=O)(=O)c2ccc(OC(F)(F)F)cc2)cc1N [Compound 51, 3-amino-N-(3-hydroxy-3-methylbutyl)-5-{[4-(trifluoromethoxy)phenyl]sulfonyl}pyridine-2-carboxamide] | 96.8% | 30.2 nM | 51.2% | 1130 nM
C[C@H](O)CCNC(=O)c1ncc(S(=O)(=O)c2ccc(OC(F)(F)F)cc2)cc1N [Compound 53, 3-amino-N-[(3S)-3-hydroxybutyl]-5-{[4-(trifluoromethoxy)phenyl]sulfonyl}pyridine-2-carboxamide] | 95.6% | 41.4 nM | 54.0% | 1820 nM
Nc1cc(S(=O)(=O)c2ccc(C(F)(F)F)cc2)cnc1C(=O)NC1(CO)CC1 [Compound 292, 3-amino-N-[1-(hydroxymethyl)cyclopropyl]-5-{[4-(trifluoromethyl)phenyl]sulfonyl}pyridine-2-carboxamide] | 72.4% | 263 nM | 28.5% | > 10000 nM
CC1CCOCC1CNC(=O)c1ncc(S(=O)(=O)c2ccc(OC(F)(F)F)cc2)cc1N (stereo not shown) [Compound 156, 3-amino-N-[(4-methyltetrahydro-2H-pyran-3-yl)methyl]-5-{[4-(trifluoromethoxy)phenyl]sulfonyl}pyridine-2-carboxamide] | 94.0% | 238 nM | 63.5% | 1390 nM
CN(C1CC1)S(=O)(=O)c1cnc(C(=O)NCC(O)C(F)(F)F)c(N)c1 (stereo not shown) [Compound 94, 3-amino-5-[cyclopropyl(methyl)sulfamoyl]-N-(3,3,3-trifluoro-2-hydroxypropyl)pyridine-2-carboxamide] | 102.0% | 22.2 nM | 43.4% | 1140 nM
CC(C)C1(O)CN(C(=O)c2ncc(S(=O)(=O)c3ccc(C(F)(F)F)cc3)cc2N)C1 [Compound 159, (3-amino-5-{[4-(trifluoromethyl)phenyl]sulfonyl}pyridin-2-yl)[3-hydroxy-3-(propan-2-yl)azetidin-1-yl]methanone] | 111.1% | 4.4 nM | 46.6% | 238 nM
Nc1cc(S(=O)(=O)c2ccc(C(F)(F)F)cc2)cnc1C(=O)NCC1(O)CC1 [Compound 228, 3-amino-N-[(1-hydroxycyclopropyl)methyl]-5-{[4-(trifluoromethyl)phenyl]sulfonyl}pyridine-2-carboxamide] | 123.3% | 8.5 nM | 62.6% | 1040 nM
Nc1cc(S(=O)(=O)c2cccc(F)c2)cnc1C(=O)N1CC(O)(C(F)(F)F)C1 [Compound 256, {3-amino-5-[(3-fluorophenyl)sulfonyl]pyridin-2-yl}[3-hydroxy-3-(trifluoromethyl)azetidin-1-yl]methanone] | 107.4% | 0.66 nM | 45.6% | > 3330 nM
C[C@H](O)CNC(=O)c1ncc(S(=O)(=O)N2CCC[C@@H]2C)cc1N [Compound 266, 3-amino-N-[(2S)-2-hydroxypropyl]-5-{[(2S)-2-methylpyrrolidin-1-yl]sulfonyl}pyridine-2-carboxamide] | 105.0% | 180 nM | 21.9% | > 10000 nM
CC(C)(C)C1CCN(S(=O)(=O)c2cnc(C(=O)NCC(O)C(F)(F)F)c(N)c2)CC1 (stereo not shown) [Compound 197, 3-amino-5-[(4-tert-butylpiperidin-1-yl)sulfonyl]-N-(3,3,3-trifluoro-2-hydroxypropyl)pyridine-2-carboxamide] | 106.7% | 3.9 nM | 76.4% | 337 nM
Nc1cc(S(=O)(=O)c2ccc(C(F)(F)F)cc2F)cnc1C(=O)NC[C@@H](O)C(F)(F)F [Compound 107, 3-amino-5-{[2-fluoro-4-(trifluoromethyl)phenyl]sulfonyl}-N-[(2R)-3,3,3-trifluoro-2-hydroxypropyl]pyridine-2-carboxamide] | 103.0% | 1.5 nM | 81.7% | 164 nM
CC(C)OCC(O)CNC(=O)c1ncc(S(=O)(=O)c2ccc(C(F)(F)F)cc2F)cc1N (stereo not shown) [Compound 133, 3-amino-5-{[2-fluoro-4-(trifluoromethyl)phenyl]sulfonyl}-N-[2-hydroxy-3-(propan-2-yloxy)propyl]pyridine-2-carboxamide] | 105.9% | 3.7 nM | 84.2% | 253 nM
Nc1cc(S(=O)(=O)c2ccc(C(F)(F)F)cc2F)cnc1C(=O)N1CC(O)(C(F)(F)F)C1 [Compound 112, (3-amino-5-{[2-fluoro-4-(trifluoromethyl)phenyl]sulfonyl}pyridin-2-yl)[3-hydroxy-3-(trifluoromethyl)azetidin-1-yl]methanone] | 100.6% | 2.6 nM | 74.1% | 157 nM
CC(C)c1ccc(S(=O)(=O)c2cnc(C(=O)NCC(O)C(F)(F)F)c(N)c2)cc1 (stereo not shown) [Compound 246, 3-amino-5-{[4-(propan-2-yl)phenyl]sulfonyl}-N-(3,3,3-trifluoro-2-hydroxypropyl)pyridine-2-carboxamide] | 118.0% | 3.9 nM | 106.0% | 391 nM
